Source: patent US8129398B2 (priority 2008, dated 2012)

target: T1, HIV-integrase (Human immunodeficiency virus type 1 group M subtype B, UniProt P12497); experiment: HIV-Integrase Inhibition Activity (SPA bead integration assay with P33 labeled target DNA); assay type: biochemical; details: recombinant integrase, class symbols; read-out: in vitro activity
T1 construct: Recombinant integrase (0.26 ng) was incubated with the beads
Method in brief: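 Strand integration read as bead-proximity CPM after P33 target DNA (0.1 fmol) and inhibitor were added to washed integrase–substrate DNA complexes on SPA beads. Enzyme bound 90 min at 37° C; EDTA (10 mM final) terminated reaction; IC50 graded A/B/C.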

Question: Which IC50 does the source give for `CN(CCO)C(=O)C(=O)NC12CCC(CC1)Cn1c2nc(C(=O)NCc2ccc(F)cc2)c(O)c1=O` [Example 81, N′-(2-((4-Fluorobenzyl)carbamoyl)-3-hydroxy-4-oxo-6,7,8,9-tetrahydro-7,10-ethanopyrimido[1,2-a]azepin-10(4H)-yl)-N-(2-hydroxyethyl)-N-methylethanediamide] here?
Answer: < 10 nM

Question: `CN(C(=O)C(=O)NC12CCC(CC1)Cn1c2nc(C(=O)NCc2ccc(F)cc2)c(O)c1=O)C1CC1` [Example 82, N-Cyclopropyl-N′-(2-((4-fluorobenzyl)carbamoyl)-3-hydroxy-4-oxo-6,7,8,9-tetrahydro-7,10-ethanopyrimido[1,2-a]azepin-10(4H)-yl)-N-methylethanediamide] was tested. Which IC50 did it give?
Answer: < 10 nM

Question: Which IC50 does the source give for `CCOC(=O)C(=O)NC12CCC(CC1)Cn1c2nc(C(=O)NCc2ccc(F)cc2)c(O)c1=O` [Example 83, Ethyl((2-((4-fluorobenzyl)carbamoyl)-3-hydroxy-4-oxo-6,7,8,9-tetrahydro-7,10-ethanopyrimido[1,2-a]azepin-10(4H)-yl)amino)(oxo)acetate] here?
Answer: < 10 nM

Question: How did the IC50 turn out when `O=C(O)C(=O)NC12CCC(CC1)Cn1c2nc(C(=O)NCc2ccc(F)cc2)c(O)c1=O` [Example 84, ((2-((4-Fluorobenzyl)carbamoyl)-3-hydroxy-4-oxo-6,7,8,9-tetrahydro-7,10-ethanopyrimido[1,2-a]azepin-10(4H)-yl)amino) (oxo)acetic acid] was run?
Answer: < 10 nM

Question: Which IC50 does the source give for `O=C(NC12CCC(CC1)Cn1c2nc(C(=O)NCc2ccc(F)cc2)c(O)c1=O)C(=O)N1CCC(F)(F)CC1` [Example 85, 10-(((4,4-Difluoro-1-piperidinyl) (oxo)acetyl)amino)-N-(4-fluorobenzyl)-3-hydroxy-4-oxo-4,6,7,8,9,10-hexahydro-7,10-ethanopyrimido[1,2-a]azepine-2-carboxamide] here?
Answer: < 10 nM

Question: `CC(=O)N[C@@H]1CCN(C(=O)C(=O)NC23CCC(CC2)Cn2c3nc(C(=O)NCc3ccc(F)cc3)c(O)c2=O)C1` [Example 86, 10-((((3R)-3-(Dcetylamino)-1-pyrrolidinyl)(oxo)acetyl)amino)-N-(4-fluorobenzyl)-3-hydroxy-4-oxo-4,6,7,8,9,10-hexahydro-7,10-ethanopyrimido[1,2-a]azepine-2-carboxamide] was tested. Which IC50 did it give?
Answer: < 10 nM

Question: For `O=C(NC12CCC(CC1)Cn1c2nc(C(=O)NCc2ccc(F)cc2)c(O)c1=O)C(=O)N1CCC[C@@H]1CO` [Example 87, N-(4-Fluorobenzyl)-3-hydroxy-10-((((2R)-2-(hydroxymethyl)-1-pyrrolidinyl)(oxo)acetyl)amino)-4-oxo-4,6,7,8,9,10-hexahydro-7,10-ethanopyrimido[1,2-a]azepine-2-carboxamide], which IC50 is on record?
Answer: < 10 nM

Question: How did the IC50 turn out when `COC[C@H]1CCCN1C(=O)C(=O)NC12CCC(CC1)Cn1c2nc(C(=O)NCc2ccc(F)cc2)c(O)c1=O` [Example 88, N-(4-Fluorobenzyl)-3-hydroxy-10-((((2R)-2-(methoxymethyl)-1-pyrrolidinyl)(oxo)acetyl)amino)-4-oxo-4,6,7,8,9,10-hexahydro-7,10-ethanopyrimido[1,2-a]azepine-2-carboxamide] was run?
Answer: < 10 nM

Question: `COC[C@@H]1CCCN1C(=O)C(=O)NC12CCC(CC1)Cn1c2nc(C(=O)NCc2ccc(F)cc2)c(O)c1=O` [Example 89, N-(4-Fluorobenzyl)-3-hydroxy-10-((((2S)-2-(methoxymethyl)-1-pyrrolidinyl)(oxo)acetyl)amino)-4-oxo-4,6,7,8,9,10-hexahydro-7,10-ethanopyrimido[1,2-a]azepine-2-carboxamide] was tested. Which IC50 did it give?
Answer: < 10 nM

Question: Which IC50 does the source give for `COC1CCN(C(=O)C(=O)NC23CCC(CC2)Cn2c3nc(C(=O)NCc3ccc(F)cc3)c(O)c2=O)C1` (stereo not shown) [Example 90, N-(4-Fluorobenzyl)-3-hydroxy-10-(((3-methoxy-1-pyrrolidinyl)(oxo)acetyl)amino)-4-oxo-4,6,7,8,9,10-hexahydro-7,10-ethanopyrimido[1,2-a]azepine-2-carboxamide] here?
Answer: < 10 nM

Question: `CN(C)C(=O)[C@@H]1CCCN1C(=O)C(=O)NC12CCC(CC1)Cn1c2nc(C(=O)NCc2ccc(F)cc2)c(O)c1=O` [Example 91, 10-((((2S)-2-(Dimethylcarbamoyl)-1-pyrrolidinyl) (oxo)acetyl)amino)-N-(4-fluorobenzyl)-3-hydroxy-4-oxo-4,6,7,8,9,10-hexahydro-7,11-ethanopyrimido[1,2-a]azepine-2-carboxamide] was tested. Which IC50 did it give?
Answer: < 10 nM

Question: Which IC50 does the source give for `CCOC(=O)[C@@H]1CCCN1C(=O)C(=O)NC12CCC(CC1)Cn1c2nc(C(=O)NCc2ccc(F)cc2)c(O)c1=O` [Example 92, Ethyl 1-(((2-((4-fluorobenzyl)carbamoyl)-3-hydroxy-4-oxo-6,7,8,9-tetrahydro-7,11-ethanopyrimido[1,2-a]azepin-10(4H)-yl)amino) (oxo)aceyl)-L-prolinate] here?
Answer: < 10 nM

Question: Which IC50 does the source give for `CN(C)CCN(C)C(=O)C(=O)NC12CCC(CC1)Cn1c2nc(C(=O)NCc2ccc(F)cc2)c(O)c1=O` [Example 93, N-(2-(Dimethylamino)ethyl)-N′-(2-((4-fluorobenzyl)carbamoyl)-3-hydroxy-4-oxo-6,7,8,9-tetrahydro-7,10-ethanopyrimido[1,2-a]azepin-10(4H)-yl)-N-methylethanediamide] here?
Answer: < 10 nM

Question: Which IC50 does the source give for `CN(CC1CCCO1)C(=O)C(=O)NC12CCC(CC1)Cn1c2nc(C(=O)NCc2ccc(F)cc2)c(O)c1=O` (stereo not shown) [Example 94, N′-(2-((4-Fluorobenzyl)carbamoyl)-3-hydroxy-4-oxo-6,7,8,9-tetrahydro-7,10-ethanopyrimido[1,2-a]azepin-10(4H)-yl)-N-methyl-N-(tetrahydro-2-furanylmethyl)ethanediamide] here?
Answer: < 10 nM

Question: For `Cc1c(CN(C)C(=O)C(=O)NC23CCC(CC2)Cn2c3nc(C(=O)NCc3ccc(F)cc3)c(O)c2=O)cnn1C` [Example 95, N-((1,5-Dimethyl-1H-pyrazol-4-yl)methyl)-N′-(2-((4-fluorobenzyl)carbamoyl)-3-hydroxy-4-oxo-6,7,8,9-tetrahydro-7,10-ethanopyrimido[1,2-a]azepin-10(4H)-yl)-N-methylethanediamide], which IC50 is on record?
Answer: < 10 nM

Question: With `Cc1nn(C)cc1CN(C)C(=O)C(=O)NC12CCC(CC1)Cn1c2nc(C(=O)NCc2ccc(F)cc2)c(O)c1=O` [Example 96, N-((1,3-Dimethyl-1H-pyrazol-4-yl)methyl)-N′-(2-((4-fluorobenzyl)carbamoyl)-3-hydroxy-4-oxo-6,7,8,9-tetrahydro-7,10-ethanopyrimido[1,2-a]azepin-10(4H)-yl)-N-methylethanediamide] as the molecule, how does the IC50 read?
Answer: < 10 nM

Question: With `CCN(CC)C(=O)C(=O)NC12CCC(CC1)Cn1c2nc(C(=O)NCc2ccc(F)cc2)c(O)c1=O` [Example 97, N,N-Diethyl-N′-(2-((4-fluorobenzyl)carbamoyl)-3-hydroxy-4-oxo-6,7,8,9-tetrahydro-7,10-ethanopyrimido[1,2-a]azepin-10(4H)-yl)ethanediamide] as the molecule, how does the IC50 read?
Answer: < 10 nM

Question: With `O=C(NC12CCC(CC1)Cn1c2nc(C(=O)NCc2ccc(F)cc2)c(O)c1=O)C(=O)N1CC(F)(F)C1` [Example 98, 10-(((3,3-Difluoro-1-azetidinyl) (oxo)acetyl)amino)-N-(4-fluorobenzyl)-3-hydroxy-4-oxo-4,6,7,8,9,10-hexahydro-7,10-ethanopyrimido[1,2-a]azepine-2-carboxamide] as the molecule, how does the IC50 read?
Answer: < 10 nM

Question: Which IC50 does the source give for `CC(C)CN(C)C(=O)C(=O)NC12CCC(CC1)Cn1c2nc(C(=O)NCc2ccc(F)cc2)c(O)c1=O` [Example 99, N′-(2-((4-Fluorobenzyl)carbamoyl)-3-hydroxy-4-oxo-6,7,8,9-tetrahydro-7,10-ethanopyrimido[1,2-a]azepin-10(4H)-yl)-N-methyl-N-(2-methylpropyl)ethanediamide] here?
Answer: < 10 nM
